Experimental data published in patent publication US6908943B2, “Use of γ-tocopherol and its oxidative metabolite LLU-α in the treatment of disease” (Loma Linda University Medical Center, priority 1998, dated 2005).
Several values for one entry are separate records, joined by “and”; a condition that tells them apart may be missing. Equal values may be shown once. Entries after “also recorded” stand apart in the source; their conditions may differ.

Assays:
[1] = Chemical characteristics / stability of the natriuretic LLUs; assay type: physicochemical
conscious rats = assay: In vivo bioassay for natriuresis in conscious rats; set-up: species or system rat; details: for Natriuretic Response (R): R > 0.67 = active
Procedure: The assay for natriuresis in conscious rats has been described previously (see Benaksas et al., above). The assay is briefly reiterated here. Female Sprague-Dawley (Harlan) rats (200-250 g) were cannulated in the femoral artery and vein for monitoring of mean arterial pressure (MAP) and Infusion of saline and samples, respectively. The bladder was catheterized for collection of urine in ten-minute periods. Furosemide (0.4 mg/kg bwt; 1 mg/mL in 0.17% saline) was infused as a positive control at the beginning of the sixth ten-minute period. The sample was infused at the beginning of the seventeenth ten-minute period. Urine was collected for another 150 minutes. The volume of the urine was determined gravimetrically and the Na^+ and K^+ concentrations determined with a Beckman E2A electrolyte analyzer.
The natriuretic response of a sample was normalized to the dose of furosemide infused. The not sodium excretion for the Infusion of furosemide or sample was calculated as follows. The median sodium excretion value (μmoles Na^+/10 minute period) for the five periods before infusion of furosemide or sample was used to establish a baseline value for the calculation of ΔUNaV (=μmoles Na^+ period—baseline μmoles Na^+) for administration of either furosemide or sample respectively. The sum of ΔUNaV for the four periods following infusion of furosemide was the net sodium excreted for furosemide, defined as FR. The sum of ΔUNaV for the fifteen periods following infusion of the sample was the net sodium excreted for the sample defined as SR. The natriuretic ratio Rn (or normalized natriuretic response) of a sample was calculated by dividing SR by FR (Rn=SR/FR). A sample is considered natriuretically active if the Rn value for that sample was greater than or equal to 0.67 (greater than 99% confidence limits).

Na+/K+-ATPase = target: T1, Na+/K+-ATPase (Bos taurus, UniProt Q08DA1); assay: Na+/K+-ATPase inhibition assay (86Rb+ uptake) in MDBK cells; assay type: cell-based, bovine; details: 0.2-200 ng/well
T1 construct: host or cells: MDBK (Madin-Darby bovine kidney) cells
Procedure: The assay in MDBK cells has been described previously (see Benaksas at al., above). The assay is described briefly here. Madin-Darby bovine kidney (MDBK) cells (ATCC:CCL22) were maintained in Dulbecco's Modified Eagle's Medium (DMEM) with 5% Fetal Bovine Serum and 5% Bovine Calf Serum in a 5% CO2/95% humidified air atmosphere at 37° C. and split (1:2) once per week.
One day before the assay, cells were plated in a 96-well plate at a density of 5×10^5 cells/well in DMEM with serum. On the day of the assay the medium was removed and the cells washed with phosphate buffered saline (PBS) before addition of 100 μL of assay media (122 mM NaCl, 1.8 mM CaCl2, 0.8 mM MgSO4, 24 mM NaHCO3, 1 mM sodium pyruvate, 25 mM glucose, 14 mM glycylglycine, 0.2% phenol red, 8 mM Na2HPO4 1.15 mM KH2PO4, pH 8.0) and 100 μl of sample. The plate was preincubated for 30 minutes at 37° C., then chilled on ice for 10 minutes. To each well was added 0.15 μCi ^86RbCl (Amersham) in 10 μL of assay media. The plate was then incubated at 37° C. for 10 minutes. A portion (100 μL) of the supernatant was counted with 0.5 mL of scintillation cocktail in a liquid scintillation counter. As a control for Na^+/K^+-ATPase inhibition, a dose response curve for ouabain in the range of 10^−5-10^−8 M was obtained. Intra-experiment coefficient of variation for ouabain was 3-15%. […]

[2] = test system: tumor cells derived from a spontaneously arising mammary tumor; assay: Tumor formation in mice injected with mammary tumor cells; assay type: in vivo; details: 20 mg/kg, 21 days after tumor cell injection, versus untreated tumor-induced control mice
Excerpt: Four groups of mice are used in the study: (1) control mice in which tumor formation is not induced but treatment with a formulation of γ-tocopherol 75% (weight to weight) and LLU-α 25% (weight to weight) is rendered; (2) control mice in which tumor formation is induced and treatment is not rendered; (3) experimental mice in which tumor formation is induced and treatment with γ-tocopherol 75% (weight to weight) is rendered; and (4) experimental mice in which tumor formation is induced and treatment with a formulation of γ-tocopherol 75% (weight to weight) and LLU-α 25% (weight to weight) is rendered. As a further control, mice in which tumor formation is induced are treated with varying concentrations of α-tocopherol so as to evaluate the relative effectivity of γ-tocopherol and the formulation of γ-tocopherol and LLU-α, as compared to α-tocopherol.
Mice which receive treatment with γ-tocopherol or a formulation of γ-tocopherol and LLU-α, as described above, are given 20 mg/kg of supplement for a period of 2-4 weeks. Tumor cells derived from a spontaneously arising mammary tumor are then injected into the thigh area of the experimental mice to induce tumor formation. Treatment with γ-tocopherol and the formulation of γ-tocopherol and LLU-α is continued according to the protocol above. After 21 days, the mean volume of tumors in the mice is determined and compared.

With `Cc1c(C)c2c(c(C)c1O)CCC(C)(CCC(=O)O)O2` (racemic) [Example 12, 2,5,7,8-tetramethyl-2-(β-carboxyethyl)-6-hydroxy chroman] the melting point was 173 °C.

In the case of `Cc1c(O)cc2c(c1C)OC(C)(CCC(=O)O)CC2` (racemic) [LLU-α, 6-hydroxy-2,7,8-trimethylchroman-2-propanoic acid], the “Physical Properties: stability in CDCl3” value ([1]; CDCl3) was “Unstable in”, the “Physical Properties: stability in dilute base” value ([1]; dilute base) was “instability; also recorded: Unstable in” and the natriuretic activity (conscious rats; 8 μg/kg, further purified on acetic acid/acetonitrile RP-HPLC (seventh step)) was “active”. The “kaliuresis (potassium excretion)” value (conscious rats; after infusion, conscious rat) was “no detectable kaliuresis”, the “change in mean arterial pressure” value (conscious rats; infusion, conscious rat) was “Neither LLU-α nor -γ caused a significant Change; also recorded: does not cause a significant change” and the “effect on blood pressure” value (conscious rats; infusion, conscious rat) was “no effect on blood pressure”. The “natriuresis when infused into the rat” value (conscious rats; infusion, conscious rat) was “sustained natriuresis”, the “natriuretic activity at lower or higher doses” value (conscious rats; partially purified (sixth step), doses below or above 4-8 μg/kg) was “no activity” and the “dose range with natriuretic activity” value (conscious rats; partially purified from silica gel-HPLC (sixth purification step)) was 4 to 8 µg/kg. For the same compound, the natriuretic dose-response curve (conscious rats; shape of curve (Table III)) was “narrow and biphasic”, the “Natriuretic Response (R)” value (conscious rats; silica gel HPLC fraction 17, dose 0.2 μg, infused in conscious rat) was −0.14 and the “Natriuretic Response (R)” value (conscious rats; silica gel HPLC fraction 17, dose 1 μg) was 0.27. For the same compound, the “Natriuretic Response (R)” value (conscious rats; silica gel HPLC fraction 17, dose 2 μg) was 1.14 and 0.75, the “Natriuretic Response (R)” value (conscious rats; silica gel HPLC fraction 17, dose 10 μg) was 0.26 and the “Natriuretic Response (R)” value (conscious rats; silica gel HPLC fraction 18, dose 22.4 μg) was 0.02. The “Natriuretic Response (R)” value (conscious rats; silica gel HPLC fraction 18, dose 56.4 μg) was 0.23, the “Natriuretic Response (R)” value (conscious rats; silica gel HPLC fraction 19, dose 0.2 μg) was 0.24 and the “Natriuretic Response (R)” value (conscious rats; silica gel HPLC fraction 19, dose 1 μg) was 0.93. The “Natriuretic Response (R)” value (conscious rats; silica gel HPLC fraction 19, dose 10 μg) was 0.09, the “sodium excretion in the urine in mammals” value (conscious rats; without a corresponding increase in potassium excretion) was “capable of increasing sodium excretion” and the “Na+/K+-ATPase inhibition” value (Na+/K+-ATPase) was “no inhibition”.

For `Cc1c(O)cc2c(c1C)O[C@](C)(CCC[C@H](C)CCC[C@H](C)CCCC(C)C)CC2` [γ-tocopherol], the “mean volume of tumors” value [2] was “less than the mean volume of tumors in the control mice”.
